pIC50, pKi: −log10 of the molar value. Where two headings read alike, the source gives them in different places.
What was measured:
[1] = target: CAII; details: reported coumarins, Figure 1; cited from earlier work
[2] = target: CAI; details: reported coumarins, Figure 1; cited from earlier work
[3] = target: CAIX; details: reported coumarins, Figure 1; cited from earlier work
[4] = target: hCA II (Homo sapiens, UniProt P00918); experiment: CA inhibition by the esterase assay, hCA II; assay type: biochemical; details: human recombinant enzyme, 4-nitrophenylacetate as substrate
Method: (§1) The esterase assay was used for testing the inhibitory activities of target compounds against carbonic anhydrases. […] Next, the stock solution of inhibitor was diluted to the specified concentration by using analysis buffer. […] In addition, the purchased CA was diluted with analysis buffer and added to 96-well plates. Next, different concentrations of inhibitors were also added to 96-well plates. To form the inhibitors and enzymes complex, E-I solutions were preincubated together for 4 h before the test at room temperature. Meanwhile, the nonenzymatic hydrolysis rates were tested by the blank control experiments. The absorbances were determined by using multifunctional enzyme marking instrument.

[5] = target: T1, hCA I (Homo sapiens, UniProt P00915); experiment: CA inhibition by the esterase assay, hCA I; assay type: biochemical; details: for pIC50: human recombinant enzyme, 4-nitrophenylacetate as substrate
T1 construct: purchased
Method: as §1

[6] = target: T2, hCA IX (Homo sapiens, UniProt Q16790); experiment: CA inhibition by the esterase assay, hCA IX; assay type: biochemical; details: for Inhibition of hCA IX (in words) / pIC50: esterase assay; for pIC50: human recombinant enzyme, 4-nitrophenylacetate as substrate; for Selectivity Ratio hCA I/hCA IX / Selectivity Ratio hCA II/hCA IX: ratio of IC50 values
T2 construct: purchased
Method: as §1

[7] = Metabolic stability in mouse liver microsomes; details: mouse, liver microsomes
[8] = target: T3, hERG channel (Homo sapiens, UniProt Q12809); experiment: Inhibition evaluation on hERG K+ channel (whole-cell recording, HEK 293); assay type: cell-based; details: HEK 293 cells stably transfected with hERG
T3 construct: expressed in transfected cells; host or cells: HEK 293
Method: HEK 293 cells were stably transfected with human Ether-a-gogo related gene (hERG) channel. The voltage-gated hERG potassium channel current was recorded at room temperature from randomly selected transfected cells using whole-cell recording technique with an EPC10 USB (HEKA) or Multiclamp 700 B amplifier (Molecular Devices) while electrical data was digitalized by Digidata1440 A with acquisition rate of 10 kHz and signals filtered at 2.5 KHz using Patchmaster or pClamp 10, respectively. Dofetilide was included as a positive control to ensure the accuracy and sensitivity of the test system. All experiments were performed in 3 times.

[9] = system: MCF-10A cell line; experiment: Cytotoxicity against normal cell line MCF-10A (MTT assay); assay type: cell-based; details: Homo sapiens
[10] = system: HT-29 cells; experiment: Cell viability MTT assay, HT-29; assay type: cell-based; details: Homo sapiens
Method: (§2) In the present study, the potential cytotoxicity of compounds 10a–10p was evaluated in vitro by MTT assay. […] So, half of each cell line were subjected to hypoxic conditions (0.5% O2, 5% CO2 and 94.5% N2) for inducing the expression of CA IX and the other half were incubated under normal conditions (normoxia). Subsequently, all synthesized derivatives were screened at a concentration of 100 μM to test their cytotoxicity in mentioned above cells.
(§3) The two human cancer cell lines were cultivated for 24 h at 37 °C in a 96-well plate. Subsequently, different concentrations of inhibitors were added to 96-well plate and then was incubated for 96 hours. After the MTT solution was added to per well, cancer cells were further incubated for 4 h at 37 °C. Finally, formazan crystals were dissolved by using DMSO. The cancer cells were from American Type Culture Collection.

[11] = Acute toxicity assay in mice; details: mouse, in vivo, oral, mice, expected from preliminary data
Method: (§4) Finally, acute toxicity of representative compounds was conducted in mice to preliminarily evaluate the risk of target compounds to mammals. […].
(§5) […]. After the compound was administered, the latency of death was observed and recorded over a span of 14 days. The experimental protocols were evaluated and approved by the ethics committee of the Shenyang Pharmaceutical University.

[12] = system: mice; experiment: Acute toxicity assay in mice; details: mouse, in vivo, 14 days
Method: as §4, §5

[13] = system: MDA-MB-231 cells; experiment: Cell viability MTT assay, MDA-MB-231; assay type: cell-based; details: Homo sapiens
Method: as §2, §3

[14] = system: HT-29 cancer cells; experiment: Extracellular pH measurement, HT-29; assay type: cell-based, human; details: HT-29, 0.1 and 0.5 mM, 48 h, normoxia and hypoxia
Method: (§6) One important feature of CA IX is regulating the pH of tumor cells. The expression of CA IX in solid tumors will make the extracellular pH become more acidic to promote tumor growth and metastasis. Therefore, the effect on extracellular pH of the representative compounds 10a and 10h was tested in hypoxia and normoxic conditions. […] Especially, the extracellular acidification of these two cancer cells could be slightly reversed by this compound under normoxic condition. In addition, the reversal of extracellular acidification is more significant under hypoxia condition. Furthermore, a dose-dependent effect was observed.
(§7) Figure 3 Extracellular pH measurement after 48 h of HT-29 and MDA-MB-231 cancer cells in normoxia and hypoxia upon treatment with compound 10a and 10h (0.1 and 0.5 mM).

[15] = system: MDA-MB-231 cancer cells; experiment: Extracellular pH measurement, MDA-MB-231; assay type: cell-based, human; details: MDA-MB-231, 0.1 and 0.5 mM, 48 h, normoxia and hypoxia
Method: as §6, §7

[16] = hypoxia (0.5% O2, 5% CO2 and 94.5% N2), read-out: Cell Viability (%) HT-29 Hypoxia
[17] = normoxia, read-out: Cell Viability (%) HT-29 Normoxia
[18] = hypoxia (0.5% O2, 5% CO2 and 94.5% N2), read-out: Cell Viability (%) MDA-MB-231 Hypoxia
[19] = normoxia, read-out: Cell Viability (%) MDA-MB-231 Normoxia

T1 sequence (P00915 whole entry): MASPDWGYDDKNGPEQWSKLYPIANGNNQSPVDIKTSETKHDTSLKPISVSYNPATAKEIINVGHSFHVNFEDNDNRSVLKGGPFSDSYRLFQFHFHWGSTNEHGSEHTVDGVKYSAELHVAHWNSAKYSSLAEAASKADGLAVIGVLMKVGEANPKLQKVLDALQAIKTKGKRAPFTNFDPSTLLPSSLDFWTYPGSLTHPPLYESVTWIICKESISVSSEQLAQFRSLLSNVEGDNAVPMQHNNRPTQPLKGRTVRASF
T3 sequence (Q12809 whole entry): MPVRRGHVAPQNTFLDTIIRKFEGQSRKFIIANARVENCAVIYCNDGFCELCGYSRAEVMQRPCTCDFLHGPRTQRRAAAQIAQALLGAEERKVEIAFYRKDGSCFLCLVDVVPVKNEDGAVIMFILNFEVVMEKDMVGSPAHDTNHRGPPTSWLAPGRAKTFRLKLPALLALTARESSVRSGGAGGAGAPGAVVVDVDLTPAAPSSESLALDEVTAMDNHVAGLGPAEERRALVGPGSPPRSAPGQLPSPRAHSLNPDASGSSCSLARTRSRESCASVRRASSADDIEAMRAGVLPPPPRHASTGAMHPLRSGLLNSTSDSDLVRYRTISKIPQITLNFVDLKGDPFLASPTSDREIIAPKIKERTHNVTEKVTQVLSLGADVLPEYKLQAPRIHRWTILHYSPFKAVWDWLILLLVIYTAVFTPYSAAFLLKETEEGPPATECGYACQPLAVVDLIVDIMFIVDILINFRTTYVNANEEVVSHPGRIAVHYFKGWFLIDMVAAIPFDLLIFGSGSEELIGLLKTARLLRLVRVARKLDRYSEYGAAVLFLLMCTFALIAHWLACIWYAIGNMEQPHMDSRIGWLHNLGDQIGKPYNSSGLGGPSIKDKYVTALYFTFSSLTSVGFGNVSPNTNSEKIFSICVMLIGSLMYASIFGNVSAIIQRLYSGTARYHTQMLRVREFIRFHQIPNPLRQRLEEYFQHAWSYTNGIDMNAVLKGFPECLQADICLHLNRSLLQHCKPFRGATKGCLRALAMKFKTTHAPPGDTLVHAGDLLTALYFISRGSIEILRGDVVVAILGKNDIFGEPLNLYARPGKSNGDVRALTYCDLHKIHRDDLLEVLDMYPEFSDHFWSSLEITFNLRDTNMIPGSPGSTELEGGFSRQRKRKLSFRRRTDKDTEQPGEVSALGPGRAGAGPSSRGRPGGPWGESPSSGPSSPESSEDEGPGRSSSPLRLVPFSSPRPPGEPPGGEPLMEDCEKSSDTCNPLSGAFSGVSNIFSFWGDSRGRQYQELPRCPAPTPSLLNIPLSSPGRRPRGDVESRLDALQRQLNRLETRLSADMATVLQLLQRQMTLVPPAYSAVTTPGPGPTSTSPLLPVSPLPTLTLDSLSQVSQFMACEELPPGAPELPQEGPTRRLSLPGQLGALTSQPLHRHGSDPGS

SMILES | pKi [1] | pKi [2] | pKi [3] | pIC50 [4] | pIC50 [5] | pIC50 [6] | CLint scaled at 1 μM [7] [mL/min/kg] | half-life at 1 μM [7] [h] | viability at 100 µM [10, 16] [%] | viability at 100 µM [10, 17] [%] | Selectivity Ratio hCA I/hCA IX [6] | Selectivity Ratio hCA II/hCA IX [6] | viability at 100 µM [13, 18] [%] | viability at 100 µM [13, 19] [%] | melting point [°C] | other results
S=c1ccc2ccccc2o1 [2-Thiocoumarin 4, 2-thioxocoumarin] | < 4.00 | < 4.00 | 5.17 |  |  |  |  |  |  |  |  |  |  |  |  | 
Cc1cc(=O)oc2cc(O)ccc12 [4-Methylumbelliferone, 4-methyl-7-hydroxy coumarin, reference compound] | < 4.00 | < 4.00 | 6.25 | < 4.00 | < 4.00 | 6.22 |  |  |  |  |  |  |  |  |  | Inhibition of hCA I (in words) [5]: not at all inhibited; Inhibition of hCA IX (in words) [6]: weakly inhibited
O=c1ccc2ccccc2o1 [Compound 2] |  |  | < 4.30 |  |  |  |  |  |  |  |  |  |  |  |  | 
Cc1cc(=O)oc2cc(O[C@@H]3O[C@H](CO)[C@@H](O)[C@H](O)[C@H]3O)ccc12 [Compound 8] | < 4.00 | 6.00 | 6.43 |  |  |  |  |  |  |  |  |  |  |  |  | 
Cc1cc(=O)oc2cc(O[C@@H]3O[C@H](CO)[C@@H](O)[C@H](O)[C@@H]3O)ccc12 [Compound 9] | < 4.00 | < 4.00 | 8.04 |  |  |  |  |  |  |  |  |  |  |  |  | 
O=c1ccc2ccc(OCc3cn([C@@H]4O[C@H](CO)[C@@H](O)[C@H](O)[C@@H]4O)nn3)cc2o1 [Compound 10c, 7-[(1-β-. D-mannopyranosyl-1H-1,2,3-triazol-4-yl)methoxy]-2H-chromen-2-one] |  |  |  | 4.62 | 4.76 | 7.82 | 4.07 | 22.4 | 40.2 | 42.6 | 1167 | 1600 | 38.3 | 55.2 |  | pIC50 [8]: < 4.30; pIC50 [9]: < 4.00; LD50 at 14 days [11]: > 1500 mg/kg; Survival Quantity/Total Quantity ([12]; 500 mg/kg): 5/5; Survival Quantity/Total Quantity ([12]; 1000 mg/kg): 5/5; Survival Quantity/Total Quantity ([12]; 1500 mg/kg): 5/5
O=c1ccc2ccc(OCc3cn([C@@H]4O[C@H](CO)[C@@H](O)[C@H]4O)nn3)cc2o1 [Compound 10h, 7-[(1-β-. D-ribofuranosyl-1H-1,2,3-triazol-4-yl)methoxy]-2H-chromen-2-one] |  |  |  | 4.72 | 4.63 | 6.88 | 4.21 | 21.7 | 43.5 | 54 | 177 | 144 | 37.2 | 63.7 | 131.2 to 133.6 | Effect on extracellular acidification (extracellular pH) [14]: weaker reversal effect of extracellular acidification; Effect on extracellular acidification (extracellular pH) [15]: weaker reversal effect of extracellular acidification
Cc1cc(=O)oc2cc(OCc3cn([C@@H]4OC[C@H](O)[C@H](O)[C@H]4O)nn3)ccc12 [Compound 10n, 7-[(1-β-. L-arabinopyranosyl-1H-1,2,3-triazol-4-yl)methoxy]-4-methyl-2H-chromen-2-one] |  |  |  | 4.91 | 4.45 | 7.35 | 3.56 | 25.7 | 38.2 | 41.5 | 793 | 271 | 38.5 | 65.7 | 129.3 to 132.5 | 
Cc1cc(=O)oc2cc(OCc3cn([C@H]4O[C@@H](C)[C@H](O)[C@@H](O)[C@H]4O)nn3)ccc12 [Compound 10o, 7-[(1-β-. L-rhamnosyl-1H-1,2,3-triazol-4-yl)methoxy]-4-methyl-2H-chromen-2-one] |  |  |  | 4.49 | 4.24 | 7.02 | 3.13 | 29.2 | 33.3 | 45.7 | 599 | 334 | 38.7 | 60.3 | 125.5 to 127.7 | 
Cc1cc(=O)oc2cc(OCc3cn([C@@H]4O[C@H](CO)[C@@H](O)[C@H]4O)nn3)ccc12 [Compound 10p, 7-[(1-β-. D-ribofuranosyl-1H-1,2,3-triazol-4-yl)methoxy]-4-methyl-2H-chromen-2-one] |  |  |  | 4.65 | 4.20 | 7.01 | 2.98 | 30.7 | 36.7 | 63.1 | 647 | 229 | 35.2 | 73.1 | 123.2 to 125.6 | 
S=c1ccc2ccccc2s1 [Dithiocoumarin 5, dithiocoumarin] | < 4.00 | < 4.00 |  |  |  |  |  |  |  |  |  |  |  |  |  | 
O=c1ccc2ccccc2s1 [Thiocoumarin 3, thiocoumarin] |  | < 4.00 |  |  |  |  |  |  |  |  |  |  |  |  |  | 
O=c1ccc2ccc(O)cc2o1 [Umbelliferone, 7-hydroxy coumarin] | < 4.00 | < 4.23 | 6.32 |  |  |  |  |  |  |  |  |  |  |  |  | Inhibition of hCA I (in words) [5]: not at all inhibited; Inhibition of hCA IX (in words) [6]: weakly inhibited

From PMC9458059, “Design, Synthesis and Biological Evaluation of New Carbohydrate-Based Coumarin Derivatives as Selective Carbonic Anhydrase IX Inhibitors via “Click” Reaction” (Molecules, 2022)
